Among the test systems are HCC-2998 colon; HCT-15 colon; MCF7 breast; NCI-H23 lung; OVCAR-3 ovarian; OVCAR-4 ovarian; SF-268 CNS; SR leukemia; SW-620 colon; TK-10 renal.
Holding throughout (experiment): inhibition of tumour cell growth, NCI panel, 48 h

Molecules are shown by their SMILES.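 Dose response: 5 concentrations. Exposure: 48 h. Format: 96-well plates. Endpoint: linear interpolation; highest concentration if not reached. GI50 = concentration required for 50% inhibition of growth. TGI: concentration producing complete growth inhibition.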

`CCOC(=O)n1c2ccccc2c(=O)n1CCO`: the TGI in the experiment on HCC-2998 colon, in the experiment with HCT-15 colon, with MCF7 breast, with NCI-H23 lung, in the experiment with OVCAR-3 ovarian and in the experiment with OVCAR-4 ovarian was more than 100 µM throughout. Also, the TGI in the experiment with SF-268 CNS, with SR leukemia, in the experiment with SW-620 colon and in the experiment with TK-10 renal was more than 100 µM throughout.

On to `CCN(CCNc1ccc(C)c2sc3cc(Cl)ccc3c(=O)c12)CC(C)(C)O`, for which the GI50 in the experiment with HCC-2998 colon is 2.02 µM; in the experiment with HCT-15 colon it was 3.3 µM; in the experiment on MCF7 breast it was 11.7 µM; in the experiment with NCI-H23 lung, 6.88 µM; in the experiment with OVCAR-3 ovarian it was 18.6 µM; with OVCAR-4 ovarian, 24.6 µM. The GI50 in the experiment with SF-268 CNS is 16.5 µM; in the experiment on SR leukemia, 9.48 µM; in the experiment on SW-620 colon it was 3.64 µM; with TK-10 renal it was 3.59 µM. In addition, the TGI in the experiment on HCC-2998 colon was 4.08 µM; in the experiment on HCT-15 colon, 12 µM; with MCF7 breast, 26.9 µM; in the experiment on NCI-H23 lung, 24.1 µM; with OVCAR-3 ovarian, 62.9 µM; in the experiment with OVCAR-4 ovarian it was more than 100 µM. For the same molecule, the TGI was 69.4 µM with SF-268 CNS, more than 100 µM in the experiment on SR leukemia, 13.4 µM in the experiment on SW-620 colon and 13.9 µM in the experiment with TK-10 renal.

Regarding `CCc1ccc(C2=NN(c3ccc(S(C)(=O)=O)cc3)C(=O)CC2)cc1`, the GI50 with HCC-2998 colon was 3.96 µM; with HCT-15 colon, 1.38 µM; with MCF7 breast, 3.04 µM; in the experiment on NCI-H23 lung, 1.85 µM; in the experiment on OVCAR-3 ovarian it was 0.385 µM; in the experiment on OVCAR-4 ovarian, 7.14 µM. Moreover, the GI50 with SF-268 CNS was 3.11 µM; with SR leukemia, 0.42 µM; in the experiment on SW-620 colon, 0.56 µM; with TK-10 renal it was 8.31 µM. Also, the TGI is 33.4 µM in the experiment with HCC-2998 colon; more than 100 µM in the experiment with HCT-15 colon; more than 91.6 µM in the experiment on MCF7 breast; more than 24.3 µM with NCI-H23 lung; 2.36 µM with OVCAR-3 ovarian; more than 91.5 µM in the experiment on OVCAR-4 ovarian. Also, the TGI is more than 100 µM with SF-268 CNS, 21.7 µM with SR leukemia, more than 100 µM in the experiment with SW-620 colon and more than 100 µM in the experiment on TK-10 renal.

As for `COc1ccc(C(=O)/C=C/c2ccc(OCc3ccccc3)c(OC)c2)cc1OC`, the GI50 is 3.22 µM in the experiment on HCC-2998 colon; 2.78 µM with HCT-15 colon; 3.02 µM in the experiment with MCF7 breast; 4.18 µM with NCI-H23 lung; 2.85 µM in the experiment on OVCAR-3 ovarian; 5.01 µM in the experiment with OVCAR-4 ovarian. In addition, the GI50 in the experiment with SF-268 CNS is 3.83 µM; in the experiment with SR leukemia it was 2.47 µM; in the experiment on SW-620 colon, 3.05 µM; in the experiment on TK-10 renal, 4.32 µM. The TGI is 28 µM with HCC-2998 colon; more than 100 µM with HCT-15 colon; more than 100 µM in the experiment on MCF7 breast; 66.7 µM in the experiment on NCI-H23 lung; 8.77 µM in the experiment on OVCAR-3 ovarian; more than 100 µM in the experiment with OVCAR-4 ovarian. Besides, the TGI in the experiment on SF-268 CNS was more than 100 µM; in the experiment on SR leukemia it was more than 100 µM; in the experiment on SW-620 colon, more than 100 µM; in the experiment with TK-10 renal it was 43.8 µM.

For the molecule `Cc1ccc(NC(=O)c2ccc(NC3=C(Cl)C(=O)N(Cc4ccccc4)C3=O)cc2)cc1Cl`, the GI50 is 2.36 µM with HCC-2998 colon; 2.25 µM with HCT-15 colon; 3.3 µM with MCF7 breast; 11.3 µM in the experiment on NCI-H23 lung; 3.6 µM with OVCAR-3 ovarian; 14.7 µM in the experiment on OVCAR-4 ovarian. The GI50 is 12.4 µM with SF-268 CNS, 0.864 µM in the experiment on SR leukemia, 1.99 µM in the experiment with SW-620 colon and 17.4 µM with TK-10 renal. The TGI with HCC-2998 colon came out at 14.2 µM; with HCT-15 colon, 13.2 µM; with MCF7 breast it was 15.4 µM; in the experiment with NCI-H23 lung, 29.8 µM; in the experiment with OVCAR-3 ovarian it was 18.7 µM; with OVCAR-4 ovarian, 66.5 µM. Further, the TGI was found to be 33.7 µM with SF-268 CNS, 2.98 µM in the experiment on SR leukemia, 11.8 µM with SW-620 colon and 40.5 µM with TK-10 renal.

As to `Nc1n[nH]c2ccc([C@@H]3Nc4c(F)cc5[nH]ncc5c4[C@H]4C5CCC(C5)[C@@H]34)cc12` (stereo not given in full), the GI50 was 0.39 µM in the experiment with HCC-2998 colon; 0.222 µM with HCT-15 colon; 0.0702 µM in the experiment with MCF7 breast; 0.46 µM in the experiment on NCI-H23 lung; 0.216 µM in the experiment with OVCAR-3 ovarian; 5.81 µM in the experiment on OVCAR-4 ovarian. Further, the GI50 in the experiment on SF-268 CNS is 2.34 µM; in the experiment on SR leukemia, 0.0779 µM; with SW-620 colon it was 0.318 µM; with TK-10 renal, 5.6 µM. The TGI with HCC-2998 colon was 22.2 µM; in the experiment with HCT-15 colon, more than 41.5 µM; in the experiment with MCF7 breast it was more than 43.4 µM; in the experiment with NCI-H23 lung, 21.8 µM; in the experiment on OVCAR-3 ovarian, 0.735 µM; in the experiment on OVCAR-4 ovarian it was more than 85.8 µM. Besides, the TGI with SF-268 CNS is more than 47.5 µM; in the experiment on SR leukemia, 15.1 µM; with SW-620 colon it was more than 49.1 µM; in the experiment with TK-10 renal, more than 79.4 µM.
